Data from EP2057185B1, “POLYMYXIN DERIVATIVES AND USES THEREOF” (Northern Antibiotics Oy, priority 2006, dated 2008).

Columns and labels:
Experiment in all cases: MIC by E-strips on Mueller-Hinton agar with or without NAB7061 (4 µg/ml)
[1] = system: E. cloacae ATCC23355; type: cell-based, Enterobacter cloacae; conditions: ratio of the MIC of the antibiotic in the absence of NAB 7061 to that in the presence of 4 µg/ml of NAB 7061; E. cloacae ATCC 23355
Experimental: (§1) MICs were determined by using E-strips (Biodisk Ltd., Solna, Sweden) according to the manufacturer's instructions.
(§2) The strains originated from ATCC (11 strains), CCUG (11 strains), and NCTC (The National Collection of Type Cultures, Colindale, U.K.; 2 strains). Eight strains (the F-strains) were purchased from Mobidiag Ltd., Helsinki, Finland.

[2] = system: E. coli IH3080; type: cell-based, Escherichia coli; conditions: ratio of the MIC of the antibiotic in the absence of NAB 7061 to that in the presence of 4 µg/ml of NAB 7061; E. coli IH 3080
Experimental: as §1, §2

[3] = system: K. pneumoniae ATCC13883; type: cell-based, Klebsiella pneumoniae; conditions: ratio of the MIC of the antibiotic in the absence of NAB 7061 to that in the presence of 4 µg/ml of NAB 7061; K. pneum. ATCC 13883
Experimental: as §1, §2

[4] = system: E. coli ATCC25922; type: cell-based, Escherichia coli; conditions: ratio of the MIC of the antibiotic in the absence of NAB 7061 to that in the presence of 4 µg/ml of NAB 7061; E. coli ATCC 25922
Experimental: as §1, §2

[5] = system: Ac. baumannii F263; type: cell-based, Acinetobacter baumannii; conditions: A. baumannii F263; NAB 7061 4 µg/ml
Experimental: as §1, §2

[6] = system: Ac. baumannii F264; type: cell-based, Acinetobacter baumannii; conditions: A. baumannii F264; NAB 7061 4 µg/ml
Experimental: as §1, §2

| Compound | Sensitization factor [1] | Sensitization factor [2] | Sensitization factor [3] | Sensitization factor [4] | MIC (µg/ml) at the indicated concn (µg/ml) of NAB 7061: 4 [5] | MIC (µg/ml) at the indicated concn (µg/ml) of NAB 7061: 4 [6] |
| --- | --- | --- | --- | --- | --- | --- |
| COc1cc(Cc2cnc(N)nc2N)cc(OC)c1OC [Trimetoprim] | 3 | 3 | 2 |  |  |  |
| CN[C@H](CC(C)C)C(=O)N[C@H]1C(=O)N[C@@H](CC(N)=O)C(=O)N[C@H]2C(=O)N[C@H]3C(=O)N[C@H](C(=O)N[C@H](C(=O)O)c4cc(O)cc(O)c4-c4cc3ccc4O)[C@H](O)c3ccc(c(Cl)c3)Oc3cc2cc(c3O[C@@H]2O[C@H](CO)[C@@H](O)[C@H](O)[C@H]2O[C@H]2C[C@](C)(N)[C@H](O)[C@H](C)O2)Oc2ccc(cc2Cl)[C@H]1O [Vancomycin, vancomycin] | 32 | 2.5 | 1 | 5 |  |  |
| CO/N=C(\C(=O)N[C@@H]1C(=O)N2C(C(=O)O)=C(COC(C)=O)CS[C@H]12)c1csc(N)n1 [cefotaxime] |  |  |  | < 2 |  |  |
| CC(C)(O/N=C(\C(=O)N[C@@H]1C(=O)N2C(C(=O)[O-])=C(C[n+]3ccccc3)CS[C@H]12)c1csc(N)n1)C(=O)O [ceftazidime] |  |  |  | < 2 |  |  |
| C[C@@H](O)[C@H]1C(=O)N2C(C(=O)O)=C(SCCN=CN)C[C@H]12 [imipenem] |  |  |  |  | 8 µg/mL | 6 µg/mL |
| C[C@H]1COc2c(N3CCN(C)CC3)c(F)cc3c(=O)c(C(=O)O)cn1c23 [levofloxacin] |  |  |  | < 2 |  |  |
| C[C@@H](O)[C@H]1C(=O)N2C(C(=O)O)=C(S[C@@H]3CN[C@H](C(=O)N(C)C)C3)[C@H](C)[C@H]12 [meropenem] |  |  |  | < 2 | 6 µg/mL | 4 µg/mL |
| CCN1CCN(C(=O)N[C@@H](C(=O)N[C@@H]2C(=O)N3[C@@H]2SC(C)(C)[C@@H]3C(=O)O)c2ccccc2)C(=O)C1=O [piperacillin] |  |  |  | < 2 |  |  |
| NC[C@H]1O[C@H](O[C@H]2[C@H](O)[C@@H](O[C@H]3O[C@H](CO)[C@@H](O)[C@H](N)[C@H]3O)[C@H](N)C[C@@H]2N)[C@H](N)C[C@@H]1O [tobramycin] |  |  |  | < 2 |  |  |
| quinupristin-dalfopristin [Quinupristin-dalfopr.] | > 5 | > 21 | 1 | > 21 |  |  |
